The values below come from patent US5627203A, “Tricyclic oxime ethers” (Adir et Compagnie, priority 1994, dated 1997).

Bounds are passed on as bounds.

For one assay, the target named is T1, 5-HT3 receptors (Rattus norvegicus, UniProt P35563).
T1 construct: rat area postrema homogenates; from tissue; host or cells: rat area postrema
T1 sequence (P35563 24-483): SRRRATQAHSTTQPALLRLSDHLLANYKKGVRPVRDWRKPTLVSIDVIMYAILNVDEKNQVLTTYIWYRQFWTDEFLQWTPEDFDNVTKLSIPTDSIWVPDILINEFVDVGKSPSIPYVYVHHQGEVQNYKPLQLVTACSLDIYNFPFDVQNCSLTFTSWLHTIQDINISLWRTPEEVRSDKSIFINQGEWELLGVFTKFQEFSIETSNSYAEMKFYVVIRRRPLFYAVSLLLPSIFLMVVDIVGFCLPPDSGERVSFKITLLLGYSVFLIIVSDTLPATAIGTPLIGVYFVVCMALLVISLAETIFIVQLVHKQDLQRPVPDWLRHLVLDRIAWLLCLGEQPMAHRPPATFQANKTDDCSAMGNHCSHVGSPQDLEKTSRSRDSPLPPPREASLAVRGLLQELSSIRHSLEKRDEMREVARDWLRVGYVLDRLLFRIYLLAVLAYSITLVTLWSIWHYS
Put plainly: Displacement of 3H-zacopride at 5-HT3 receptors. Type of assay: binding. Particulars: 0.3-0.4 nM 3H-zacopride, rat area postrema homogenates, pH 7.4, 25° C., 30 minutes. As for the experimental part:
A-1: Study of the binding of the compounds of the invention to 5-HT3 serotoninergic receptors
The binding of the compounds of the invention to 5-HT3 receptors was determined for each compound by measuring the displacement of ^3 H-zacopride (specific ligand for 5-HT3 receptors) in rat area postrema homogenates.
Aliquot amounts (50-100 μl) of a membrane suspension (2.5-5.0 mg of protein/cm^3) are incubated for 30 minutes at 25° C. in a Tris-HCl buffer, 25 mM, pH 7,4, in the presence of 0.3-0.4 nM 3^H -zacopride (83 ci/mmol) (total volume: 0.5 cm^3). The incubation is terminated by filtering the samples through Whatman GF/B filters which are then washed and dried. The radioactivity retained on the filters is finally calculated by spectrometry in liquid medium (Aquasol). The non-specific binding is evaluated under the same conditions using samples containing in addition 1 μM of ondansetron (5-HT3 antagonist). The displacement curves obtained by adding increasing concentrations of a test compound to the incubation medium are analysed to determine the affinity of the test compounds for 5-HT3 receptors.

For a further assay, the target named is T2, 5-HT1B receptors (Rattus norvegicus, UniProt P28564).
T2 construct: rat cortex, striatum, and globus pallidus homogenates; from tissue; host or cells: rat cortex, striatum and globus pallidus
T2 sequence (P28564 whole entry): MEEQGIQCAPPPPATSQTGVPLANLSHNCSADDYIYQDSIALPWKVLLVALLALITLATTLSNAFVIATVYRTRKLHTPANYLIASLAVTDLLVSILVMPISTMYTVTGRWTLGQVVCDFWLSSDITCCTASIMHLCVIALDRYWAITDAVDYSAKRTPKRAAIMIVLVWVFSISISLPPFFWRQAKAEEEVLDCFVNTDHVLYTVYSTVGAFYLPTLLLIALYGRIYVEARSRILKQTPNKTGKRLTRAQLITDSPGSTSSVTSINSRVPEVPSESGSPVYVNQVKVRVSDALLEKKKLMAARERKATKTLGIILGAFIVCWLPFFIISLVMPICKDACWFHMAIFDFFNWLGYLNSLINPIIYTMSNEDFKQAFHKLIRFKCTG
Put plainly: Displacement of 5-hydroxytryptamine at 5-HT1B receptors. Type of assay: binding. Particulars: rat cortex, striatum, and globus pallidus homogenates. As for the experimental part:
(§1) A-2: Study of the binding of the compounds of the invention to the serotonin reuptake site as well as to 5-HT1, 5-HT1A, 5-HT1B, 5-HT1D, 5-HT2, 5-HT2C, 5-HT4 serotoninergic receptors.
(§2) The binding of the compounds of the invention is measured in accordance with conventional methods.
for 5-HT1B receptors, by the displacement of 5-hydroxytryptamine in rat cortex, striatum, and globus pallidus homogenates, […]

The next assay has as its target 5-HT1 receptors. Put plainly: Displacement of 5-OH tryptamine at 5-HT1 receptors. Type of assay: binding. Particulars: pig frontal cortex and striatum. Here is the method:
as §1, §2
for 5-HT1 receptors, by the displacement of 5-OH tryptamine in pig frontal cortex and striatum, […]

The next assay has as its target T3, 5-HT1A receptors (Rattus norvegicus, UniProt P19327).
T3 construct: rat hippocampus homogenates; from tissue; host or cells: rat hippocampus
T3 sequence (P19327 1-422): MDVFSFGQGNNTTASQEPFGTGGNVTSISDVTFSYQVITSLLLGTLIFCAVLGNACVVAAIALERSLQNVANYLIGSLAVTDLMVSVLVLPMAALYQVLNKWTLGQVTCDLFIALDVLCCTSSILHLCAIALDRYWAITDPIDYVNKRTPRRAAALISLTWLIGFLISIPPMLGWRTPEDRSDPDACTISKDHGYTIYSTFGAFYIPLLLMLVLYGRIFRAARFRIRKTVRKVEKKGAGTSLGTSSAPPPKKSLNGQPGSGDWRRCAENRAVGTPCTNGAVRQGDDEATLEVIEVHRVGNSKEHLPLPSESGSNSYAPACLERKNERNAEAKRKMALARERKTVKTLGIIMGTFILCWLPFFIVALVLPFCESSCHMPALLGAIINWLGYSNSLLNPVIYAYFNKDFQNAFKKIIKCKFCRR
Put plainly: Displacement of 8-OH-DPAT at 5-HT1A receptors. Type of assay: binding. Particulars: rat hippocampus homogenates. Here is the method: as §1, §2
for 5-HT1A receptors, by the displacement of 8-OH-DPAT in rat hippocampus homogenates, […]

The target of another assay is 5-HT1D receptors. Put plainly: Displacement of 5-OH-tryptamine at 5-HT1D receptors. Type of assay: binding. The following applies: rat cortex, striatum and globus pallidus homogenates. Here is the method:
as §1, §2
for 5-HT1D receptors, by the displacement of 5-OH-tryptamine in rat cortex, striatum and globus pallidus homogenates, […]

In another assay the target is T4, 5-HT2 receptors (Rattus norvegicus, UniProt P14842).
T4 construct: rat frontal cortex homogenates; from tissue; host or cells: rat frontal cortex
T4 sequence (P14842 whole entry): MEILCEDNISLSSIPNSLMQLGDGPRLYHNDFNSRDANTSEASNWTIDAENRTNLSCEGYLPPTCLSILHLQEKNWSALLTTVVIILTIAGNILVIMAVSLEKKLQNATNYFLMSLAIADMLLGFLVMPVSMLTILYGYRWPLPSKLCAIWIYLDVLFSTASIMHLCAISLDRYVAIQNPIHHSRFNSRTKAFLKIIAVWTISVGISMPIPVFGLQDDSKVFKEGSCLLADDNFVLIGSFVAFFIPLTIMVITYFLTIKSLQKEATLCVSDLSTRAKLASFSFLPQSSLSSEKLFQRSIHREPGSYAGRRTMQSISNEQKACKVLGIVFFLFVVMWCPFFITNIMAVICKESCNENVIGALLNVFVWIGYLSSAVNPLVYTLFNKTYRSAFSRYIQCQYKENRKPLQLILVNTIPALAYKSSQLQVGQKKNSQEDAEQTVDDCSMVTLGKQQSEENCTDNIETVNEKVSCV
Put plainly: Displacement of aminoiodoketaneserine at 5-HT2 receptors. Type of assay: binding. Particulars: rat frontal cortex homogenates. As for the experimental part: as §1, §2
for 5-HT2 receptors, by the displacement of aminoiodoketaneserine in rat frontal cortex homogenates, […]

The target in the next assay is T5, 5-HT2C receptors (Rattus norvegicus, UniProt P08909).
T5 construct: rat frontal cortex and hippocampus homogenates; from tissue; host or cells: rat frontal cortex and hippocampus
T5 sequence (P08909 33-460): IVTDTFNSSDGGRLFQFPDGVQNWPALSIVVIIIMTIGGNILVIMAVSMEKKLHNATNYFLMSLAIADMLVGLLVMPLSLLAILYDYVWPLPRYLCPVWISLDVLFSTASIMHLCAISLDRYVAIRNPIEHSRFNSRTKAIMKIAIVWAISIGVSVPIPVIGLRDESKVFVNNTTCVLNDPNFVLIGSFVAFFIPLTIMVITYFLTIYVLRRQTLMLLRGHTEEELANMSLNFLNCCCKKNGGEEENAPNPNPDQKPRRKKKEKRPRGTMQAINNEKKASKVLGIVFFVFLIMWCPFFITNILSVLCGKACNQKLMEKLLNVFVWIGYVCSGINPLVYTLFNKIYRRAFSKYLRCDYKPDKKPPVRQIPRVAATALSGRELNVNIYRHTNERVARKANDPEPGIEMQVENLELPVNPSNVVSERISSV
Put plainly: Displacement of N-methylmesulergine at 5-HT2C receptors. Type of assay: binding. Particulars: rat frontal cortex and hippocampus homogenates. Here is the method: as §1, §2
for 5-HT2C receptors, by the displacement of N-methylmesulergine in rat frontal cortex and hippocampus homogenates, […]

Assay [1] concerns mouse. Put plainly: Antidepressant activity: forced swimming test on the mouse. Particulars: i.p. route, last 4 of 6 minutes. Type of assay: in vivo. As for the experimental part: The antidepressant effects of the compounds of the invention were studied in accordance with the forced swimming test on the mouse. (Behavioural despair in mice: a primary screening test for antidepressants, Porsolt R. D. et al, Arch. Int. Pharmacodyn., (1977), 229, pp. 327-336).
The animals are placed for 6 minutes in a cylinder containing water from which they cannot escape. The period of immobility of the animals is measured for the last 4 minutes of the test. The test compounds are administered in a single dose before the test (imipramine being used as the reference compound).

The target of a further assay is T6, serotonin reuptake site (Rattus norvegicus, UniProt P31652).
T6 construct: rat brain from which the cerebellum has been removed; from tissue; host or cells: rat brain without cerebellum
T6 sequence (P31652 whole entry): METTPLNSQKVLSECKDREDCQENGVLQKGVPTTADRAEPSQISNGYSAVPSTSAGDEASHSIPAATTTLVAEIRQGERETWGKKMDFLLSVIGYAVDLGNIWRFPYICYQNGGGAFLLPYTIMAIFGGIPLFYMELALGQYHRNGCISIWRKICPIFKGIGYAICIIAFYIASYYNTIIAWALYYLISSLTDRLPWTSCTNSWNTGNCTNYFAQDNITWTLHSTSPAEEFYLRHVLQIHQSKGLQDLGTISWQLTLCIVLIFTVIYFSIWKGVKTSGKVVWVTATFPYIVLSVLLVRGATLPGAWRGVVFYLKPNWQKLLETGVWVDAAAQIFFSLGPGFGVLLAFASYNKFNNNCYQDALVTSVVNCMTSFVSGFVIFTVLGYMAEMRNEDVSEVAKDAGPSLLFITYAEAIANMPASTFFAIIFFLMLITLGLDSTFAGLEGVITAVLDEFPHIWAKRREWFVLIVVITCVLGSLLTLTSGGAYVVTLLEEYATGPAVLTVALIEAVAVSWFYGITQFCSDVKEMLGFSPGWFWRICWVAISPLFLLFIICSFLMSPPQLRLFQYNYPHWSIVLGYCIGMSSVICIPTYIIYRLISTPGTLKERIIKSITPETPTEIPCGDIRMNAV
Put plainly: Displacement of 3H-paroxetine at the serotonin reuptake site. Type of assay: binding. The following applies: rat brain without cerebellum, read-out: IC50, serotonin reuptake sites. As for the experimental part:
as §1, §2
for the serotonin reuptake site, by the displacement of ^3 H-paroxetinein rat brain from which the cerebellum has been removed, […]

Assay [2] relates to mouse. Put plainly: Anxiolytic activity: illuminated/darkened cages test on the mouse. Type of assay: in vivo. The following applies: 15 mg/kg, i.p. route, 5 minutes. An excerpt:
The anxiolytic effects of the compounds of the invention were studied in accordance with the illuminated/darkened cages test on the mouse (Crawley et al. (1981), Pharmacol. Biochem. Behav., 15, pp 695-699).
The test uses two cages of equal size (20×20×14 cm) made of PVC. One is strongly illuminated by a 100 W bulb ("cold" light) and the other is darkened. The two cages are separated from one another by a small opaque tunnel (5×7 cm). The mice are introduced individually into the tunnel and, once they have entered the darkened cage for the first time, a recording is made over a period of 5 minutes, by means of pads connected to a computer, of the time spent by the animals in the illuminated cage as well as the number of transfers between the darkened cage and the illuminated cage. Each experimental group comprises a minimum of 15 animals.

Consider `Cc1csc2c1-n1cccc1/C2=N/OCCN(C)C` [Example 3, (Z)-8-{[2-(N,N-Dimethylamino)ethoxy]imino}-3-methylthieno[2,3-d]pyrrolo-[1,2-a]pyrrole], for which the IC50 on 5-HT3 receptors came to 0.11 nM; on 5-HT1B receptors, 2700 nM; on 5-HT1 receptors, 2200 nM; on 5-HT1A receptors, 5800 nM; on 5-HT1D receptors it was 480 nM; on 5-HT2 receptors it was 3100 nM. Also, the IC50 was 2100 nM on 5-HT2C receptors and 120 nM at serotonin reuptake site. In addition, the “Period of immobility expressed as a percentage by comparison with the control group” value is given as -39% in the assay with mouse [1] (32 mg/kg, **p < 0.01) and -86% in the assay with mouse [1] (64 mg/kg, ***p < 0.001).
In the case of `Cc1csc2c1-n1cccc1C2=NOC(CCN(C)C)c1ccccc1` (centres unmarked) [Example 39, 3-Methyl-8-{[3-(N,N-dimethylamino)-1-phenylprop-1-yloxy]imino}thieno-[2,3-d]pyrrolo[1,2-a]pyrrole], the IC50 at 5-HT3 receptors is 200 nM; on 5-HT1B receptors it was above 100000 nM; on 5-HT1 receptors it was 10000 nM; at 5-HT1A receptors, 11000 nM; at 5-HT1D receptors, 6700 nM; at 5-HT2 receptors, 2200 nM. Besides, the IC50 on 5-HT2C receptors was 61 nM; at serotonin reuptake site, 72 nM. Also, in the assay on mouse [1] (32 mg/kg, **p < 0.01), the “Period of immobility expressed as a percentage by comparison with the control group” value was -53%.
For the molecule `Cc1csc2c1-n1cccc1/C2=N/OCC(C)N(C)C` (centres unmarked) [Example 22], the IC50 on 5-HT3 receptors was found to be 1 nM; on 5-HT1B receptors, 11000 nM; at 5-HT1 receptors, 6900 nM; on 5-HT1A receptors, 9000 nM; on 5-HT1D receptors, 6400 nM; on 5-HT2 receptors it was 11000 nM. The IC50 at 5-HT2C receptors was determined as 1600 nM; at serotonin reuptake site it was 110 nM. Besides, in the assay on mouse [2], the “Number of transfers, percentage compared with the control group” value is on record as “+76%”. Also, in the assay on mouse [2] (*p < 0.5), the “Time spent in the illuminated cage, percentage compared with the control group” value is “+92%”.
